US9107900B2, “Use of dronedarone for the preparation of a medicament for use in the prevention of cardiovascular hospitalization or of morality” (SANOFI, priority 2008, dated 2015)
Counter-ions that a name gives are not always drawn.

Test system: patients having a history of atrial fibrillation or atrial flutter
Experiment: prospective, multinational, multicentre, double-blind clinical study versus placebo: cardiovascular hospitalizations and mortality
Type: in vivo, human
Settings: for HR (95% CI): cardiovascular hospitalization and death / decrease of cardiovascular hospitalization and death: vs placebo
Experimental: The patients had to have a history of atrial fibrillation or flutter and/or could be in normal sinus rhythm or in atrial fibrillation or flutter at inclusion.
The patient recruitment was carried out by taking into account the following inclusion criteria:
• 1) One of the following risk factors had to be present: • age equal to or greater than 70 years, • hypertension (taking antihypertensives of at least two different classes), • diabetes, • history of cerebral stroke (transient ischemic event or completed cerebral stroke) or of systemic embolism, • left atrial diameter greater than or equal to 50 mm measured by echocardiography, • left ventricular ejection fraction less than 40%, measured by two-dimensional echography; or • age equal to or above 70, or even above 75, possibly combined with at least one of the risk factors below: • hypertension (taking antihypertensives of at least two different classes), • diabetes, • history of cerebral stroke (transient ischemic event or completed cerebral stroke) or of systemic embolism, • left atrial diameter greater than or equal to 50 mm measured by echocardiography, • left ventricular ejection fraction less than 40%, measured by two-dimensional echography; • 2) availability of an electrocardiogram carried out during the past 6 months in order to document the presence or the history of atrial fibrillation or flutter; • 3) availability of an electrocardiogram carried out during the past 6 months in order to document the presence or absence of normal sinus rhythm. […] Criteria Related to a Cardiac Condition: • Patients in permanent atrial fibrillation • Patients in unstable hemodynamic condition such as acute pulmonary edema within 12 hours prior to start of study medication; cardiogenic shock; treatment with IV pressor agents; patients on respirator; congestive heart failure of stage NYHA IV within the last 4 weeks; uncorrected, hemodynamically significant primary obstructive valvular disease; hemodynamically significant obstructive cardomyopathy; a cardiac operation or revascularization procedure within 4 weeks preceding randomization • Planned major non-cardiac or cardiac surgery or procedures including surgery for valvular heart disease, coronary artery bypass graft (CABG), percutaneous coronary intervention (PCI), or on urgent cardiac transplantation list • Acute myocarditis or constrictive pericarditis • Bradycardia<50 bpm and/or PR-interval>0.28 sec on the last 12-lead ECG. • Significant sinus node disease (documented pause of 3 seconds or more) or 2nd or 3rd degree atrioventricular block (AV-block) unless treated with a pacemaker. Criteria Related to Concomitant Medications:
Need of a concomitant medication that is prohibited in this trial, including the requirement for Vaughan Williams Class I and III anti-arrhythmic drugs, that would preclude the use of study drug during the planned study period, i.e. patients have to stop others antiarrhythmics such as Vaughan Williams Class I and III anti-arrhythmic drugs, for example amiodarone, flecamide, propafenone, quinidine, disopyramide, dofetilide, solatol.
• Plasma potassium<3.5 mmol/l (as anti-arrhythmic drugs can be arrhythmogenic in patients with hypokalemia, this must be corrected prior to randomization. • A calculated GFR at baseline<10 ml/min using the Cockroft Gault formula (GFR [ml/min]=(140−AGE [years]*WEIGHT [kilograms]*CONSTANT/CREATININE [μmol/L], where CONSTANT is […]).
Furthermore, the concomitant use of grapefruit juice and all potent inhibitors of CYP3A4 such as ketoconazole were prohibited.
Treatment was initiated using tablets containing either the placebo or an amount of dronedarone hydrochloride corresponding to 400 mg of dronedarone at a rate of twice a day with the morning and evening meal and more specifically at a rate of one tablet in the morning during or shortly after breakfast and one tablet in the evening during or shortly after dinner. […]

[1] = III.30 cardiovascular hospitalization, Dronedarone N = 2301
[2] = III.31 hospitalization not due to supraventricular arrhythmia, Dronedarone N = 2301

CCCCc1oc2ccc(NS(C)(=O)=O)cc2c1C(=O)c1ccc(OCCCN(CCCC)CCCC)cc1 [dronedarone hydrochloride, 2-n-Butyl-3-[4-(3-di-n-butylaminopropoxy)benzoyl]-5-methylsulphonamidobenzofuran]
HR (95% CI): cardiovascular hospitalization and death (Age ≧75 years (N 1925)): 0.75 (0.65, 0.87) | decrease of cardiovascular hospitalization and death (Age ≧75 years): 25% | HR (95% CI): cardiovascular hospitalization and death (Diabetes (N 945)): 0.75 (0.61, 0.91) | decrease of cardiovascular hospitalization and death (Diabetes): 25% | HR (95% CI): cardiovascular hospitalization and death (Hypertension (N 3995)): 0.77 (0.69, 0.85) | decrease of cardiovascular hospitalization and death (Hypertension): 23% | Any cardiovascular hospitalization, number [1]: 675 | Any cardiovascular hospitalization, percent [1]: (29.3%) | Atherosclerosis related (if not otherwise specified), number [1]: 11 | Atherosclerosis related (if not otherwise specified), percent [1]: (0.5%) | Atrial fibrillation and other supraventricular rhythm disorders, number [1]: 296 | Atrial fibrillation and other supraventricular rhythm disorders, percent [1]: (12.9%) | Blood pressure related (hypotension, hypertension; except syncope), number [1]: 21 | Blood pressure related (hypotension, hypertension; except syncope), percent [1]: (0.9%) | Cardiovascular infection, number [1]: 4 | Cardiovascular infection, percent [1]: (0.2%) | Cardiovascular surgery except cardiac transplantation, number [1]: 21 | Cardiovascular surgery except cardiac transplantation, percent [1]: (0.9%) | Implantation of a pacemaker, ICD or any other cardiac device, number [1]: 32 | Implantation of a pacemaker, ICD or any other cardiac device, percent [1]: (1.4%) | Major bleeding (requiring two or more units of blood or any intracranial hemorrhage), number [1]: 21 | Major bleeding (requiring two or more units of blood or any intracranial hemorrhage), percent [1]: (0.9%) | Myocardial infarction or unstable angina, number [1]: 48 | Myocardial infarction or unstable angina, percent [1]: (2.1%) | Non-fatal cardiac arrest, number [1]: 3 | Non-fatal cardiac arrest, percent [1]: (0.1%) | Other ventricular arrhythmia, number [1]: 1 | Other ventricular arrhythmia, percent [1]: (<0.1%) | Pulmonary embolism or deep vein thrombosis, number [1]: 10 | Pulmonary embolism or deep vein thrombosis, percent [1]: (0.4%) | Stable angina pectoris or atypical chest pain, number [1]: 45 | Stable angina pectoris or atypical chest pain, percent [1]: (2.0%) | Syncope, number [1]: 21 | Syncope, percent [1]: (0.9%) | TIA or stroke (except intracranial hemorrhage), number [1]: 28 | TIA or stroke (except intracranial hemorrhage), percent [1]: (1.2%) | Transcutaneous coronary, cerebrovascular or peripheral procedure, number [1]: 27 | Transcutaneous coronary, cerebrovascular or peripheral procedure, percent [1]: (1.2%) | Ventricular extrasystoles, number [1]: 1 | Ventricular extrasystoles, percent [1]: (<0.1%) | Ventricular fibrillation, number [1]: 1 | Ventricular fibrillation, percent [1]: (<0.1%) | Ventricular tachycardia (non-sustained and sustained), number [1]: 6 | Ventricular tachycardia (non-sustained and sustained), percent [1]: (0.3%) | Worsening heart failure, including pulmonary edema or dyspnea of cardiac origin, number [1]: 78 | Worsening heart failure, including pulmonary edema or dyspnea of cardiac origin, percent [1]: (3.4%) | Any non-AF cardiovascular hospitalization, number [2]: 438 | Any non-AF cardiovascular hospitalization, percent [2]: (19.0%) | Atherosclerosis related (if not otherwise specified), number [2]: 11 | Atherosclerosis related (if not otherwise specified), percent [2]: (0.5%) | Blood pressure (hypotension, hypertension, not syncope), number [2]: 25 | Blood pressure (hypotension, hypertension, not syncope), percent [2]: (1.1%) | Cardiovascular infection, number [2]: 4 | Cardiovascular infection, percent [2]: (0.2%) | Cardiovascular surgery except cardiac transplantation, number [2]: 24 | Cardiovascular surgery except cardiac transplantation, percent [2]: (1.0%) | Implantation of a pacemaker, ICD or any other cardiac device, number [2]: 46 | Implantation of a pacemaker, ICD or any other cardiac device, percent [2]: (2.0%) | Major bleeding (requiring two or more units of blood or any intracranial hemorrhage), number [2]: 27 | Major bleeding (requiring two or more units of blood or any intracranial hemorrhage), percent [2]: (1.2%) | Myocardial infarction or unstable angina, number [2]: 52 | Myocardial infarction or unstable angina, percent [2]: (2.3%) | Non-fatal cardiac arrest, number [2]: 3 | Non-fatal cardiac arrest, percent [2]: (0.1%) | Other ventricular arrhythmia, number [2]: 1 | Other ventricular arrhythmia, percent [2]: (<0.1) % | Pulmonary embolism or deep vein thrombosis, number [2]: 11 | Pulmonary embolism or deep vein thrombosis, percent [2]: (0.5%) | Stable angina pectoris or atypical chest pain, number [2]: 51 | Stable angina pectoris or atypical chest pain, percent [2]: (2.2%) | Syncope, number [2]: 23 | Syncope, percent [2]: (1.0%) | TIA or stroke (except intracranial hemorrhage), number [2]: 32 | TIA or stroke (except intracranial hemorrhage), percent [2]: (1.4%) | Transcutaneous coronary, cerebrovascular or peripheral procedure, number [2]: 31 | Transcutaneous coronary, cerebrovascular or peripheral procedure, percent [2]: (1.3%) | Ventricular extrasystoles, number [2]: 1 | Ventricular extrasystoles, percent [2]: (<0.1) % | Ventricular fibrillation, number [2]: 1 | Ventricular fibrillation, percent [2]: (<0.1) % | Ventricular tachycardia (non-sustained and sustained), number [2]: 6 | Ventricular tachycardia (non-sustained and sustained), percent [2]: (0.3%) | Worsening heart failure, including pulmonary edema or dyspnea of cardiac origin, number [2]: 89 | Worsening heart failure, including pulmonary edema or dyspnea of cardiac origin, percent [2]: (3.9%) | HR (95% CI): cardiovascular hospitalization and death (LVEF <0.40 (N 338)): 0.72 (0.51, 1.00) | decrease of cardiovascular hospitalization and death (LVEF <0.40): 28%
